{
  "source": "patent US20170354592A1",
  "about": "(ASCENDIA PHARMACEUTICALS, LLC, priority 2016, published 2017)",
  "key": {"β-adrenoceptor": {"tested_on": "β-adrenoceptor", "settings": "cited from earlier work; for potency as a β-adrenoceptor antagonist versus Carvedilol: relative to carvedilol, Hoffman (2001), Tenero et al (2000)"}, "[1]": {"settings": "cited from earlier work"}, "[2]": {"assay": "Vital signs and adverse reactions after IV dose (non-invasive tail cuff)", "settings": "rats iv 2.5 mg/kg", "method": "(§1) 15 cannulated and non-cannulated, 9 and 6 rats respectively, Sprague-Dawley® male rats were divided into 3 groups. […] Treatment was administered intravenously. During the experiment, rats were inspected twice daily for vitality and as needed after dosing and intermittently and vitals, including blood pressure, heart rate, and temperature, were recorded from the non-cannulated animals. Main vital signs were monitored prior to and at multiple time points after dose administration. Blood pressure and heart rate were measured using a non-invasive tail cuff system after a brief acclimation period. Blood samples (approximately 300-325 μL each) were collected from cannulated rats at each time point into tubes containing K2EDTA.\n(§2) Following centrifugation at 4° C., the plasma was collected and stored at −80° C. The blood sampling time points were as follows: prior to (PRE) and approximately 0.25, 0.5, 1, 2, 3, 8, 10 and 24 hours after dose administration. Samples were collected via Jugular Vein Cannulas."}, "[3]": {"assay": "Single IV injection of carvedilol liposomes and free-carvedilol solution, plasma PK", "settings": "rats, single iv 2.5 mg/kg", "method": "as §1, §2"}},
  "data": [
    {"compound": "COc1cc(O)ccc1OCCNCC(O)COc1cccc2[nH]c3ccccc3c12", "note": "(stereo not shown) [4-hydroxyphenyl-carvedilol]", "values": [
      {"measurement": "potency in β-blockade versus the parent compound", "setting": "β-adrenoceptor; more potent than carvedilol", "value": "about 13 fold"},
      {"measurement": "potency as a β-adrenoceptor antagonist versus Carvedilol", "setting": "β-adrenoceptor", "value": "about 13 times"}
    ]},
    {"compound": "COc1ccc(O)cc1OCCNCC(O)COc1cccc2[nH]c3ccccc3c12", "note": "(stereo not shown) [5-hydroxyphenyl-carvedilol]", "values": [
      {"measurement": "potency as a β-adrenoceptor antagonist versus Carvedilol", "setting": "β-adrenoceptor", "value": "one-half"}
    ]},
    {"compound": "Oc1ccccc1OCCNCC(O)COc1cccc2[nH]c3ccccc3c12", "note": "(stereo not shown) [desmethylcarvedilol]", "values": [
      {"measurement": "potency as a β-adrenoceptor antagonist versus Carvedilol", "setting": "β-adrenoceptor", "value": "approximately 2.5 times"}
    ]},
    {"compound": "(±)-[3-(9H-carbazol-4-yloxy)-2-hydroxypropyl][2-(2-ethoxyphenoxy)ethyl] amine [Carvedilol]", "values": [
      {"measurement": "pKa", "setting": "[1]", "value": 7.8},
      {"measurement": "Diastolic", "setting": "[2]; 1 Hour after dose", "value": 40},
      {"measurement": "HR", "setting": "[2]; 1 Hour after dose", "value": 363, "unit": "Beats/min"},
      {"measurement": "MAP", "setting": "[2]; 1 Hour after dose", "value": 69},
      {"measurement": "Temp", "setting": "[2]; 1 Hour after dose", "value": 99, "unit": "° F."},
      {"measurement": "Diastolic", "setting": "[2]; 15 min after dose", "value": 48},
      {"measurement": "HR", "setting": "[2]; 15 min after dose", "value": 354, "unit": "Beats/min"},
      {"measurement": "MAP", "setting": "[2]; 15 min after dose", "value": 73},
      {"measurement": "Temp", "setting": "[2]; 15 min after dose", "value": 98, "unit": "° F."},
      {"measurement": "Diastolic", "setting": "[2]; 30 min after dose", "value": 33},
      {"measurement": "HR", "setting": "[2]; 30 min after dose", "value": 360, "unit": "Beats/min"},
      {"measurement": "MAP", "setting": "[2]; 30 min after dose", "value": 60},
      {"measurement": "Temp", "setting": "[2]; 30 min after dose", "value": 99, "unit": "° F."},
      {"measurement": "time after dose at which carvedilol was cleared from plasma", "setting": "[3]; FIG. 3", "value": 3, "unit": "h"},
      {"measurement": "AUC(0-T)", "setting": "[3]; mean", "value": 284, "unit": "ng·h/mL"},
      {"measurement": "AUC(INF)", "setting": "[3]; mean", "value": 291, "unit": "ng·h/mL"},
      {"measurement": "CL", "setting": "[3]; mean", "value": 144.0, "unit": "mL/min/kg"},
      {"measurement": "Cmax", "setting": "[3]; mean", "value": 354, "unit": "ng/mL"},
      {"measurement": "T-HALF", "setting": "[3]; mean", "value": 0.52, "unit": "h"},
      {"measurement": "Tmax", "setting": "[3]; mean", "value": 15, "unit": "min"},
      {"measurement": "Vss", "setting": "[3]; mean", "value": 6.4, "unit": "L/kg"}
    ]}
  ]
}
